Holding throughout (assay): DTP human tumour cell line panel, 384-well format
Assay [1] has as its system HCT-116 colon.
Assay [2] deals with BT-549 breast.
In assay [3] the test system is DU-145 prostate.
Assay [4] has as its system UACC-257 melanoma.
The test system of assay [5] is MOLT-4 leukemia.
For assay [6], the system named is SK-MEL-5 melanoma.
In assay [7] the test system is MDA-MB-435 melanoma.
In assay [8] the test system is HOP-92 NSCLC.
The subject of assay [9] is SW-620 colon.
The subject of assay [10] is OVCAR-3 ovarian.
Assay [11] deals with NCI/ADR-RES ovarian.
Assay [12] relates to PC-3 prostate.

The GI50 is the concentration that inhibits growth by half. As a reminder, the TGI is the concentration giving total growth inhibition. Higher therefore signals less potent growth arrest.

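GI50 = concentration required for 50% inhibition of growth. TGI is the concentration that stops growth completely.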

For the compound `C=CC(=O)N1CCN(CCCn2c(=O)c(-c3c(Cl)c(OC)cc(OC)c3Cl)cc3cnc(NC)nc32)CC1`, the GI50 in assay [1] was 3.55 µM; in assay [2], 0.369 µM; in assay [3] it was 4.02 µM; in assay [4], 4.44 µM; in assay [5], 0.689 µM; in assay [6] it was 2.35 µM. In addition, the GI50 is 4.33 µM in assay [7]; 1.61 µM in [8]; 3.22 µM in assay [9]; 2.21 µM in [10]; 7.93 µM in [11]; 3.56 µM in [12]. Moreover, the TGI in assay [1] stood at 14.7 µM; in assay [2], 3.1 µM; in assay [3] it was 18.1 µM; in [4], 16 µM; in assay [5], 1.96 µM; in assay [6], 13.1 µM. Moreover, the total growth inhibition concentration (TGI) in assay [7] worked out at 14.7 µM; in assay [8] it was 6.96 µM; in [9], 9.31 µM; in assay [10], 13.6 µM; in [11] it was 21.3 µM; in assay [12], 12.4 µM.

The values above are taken from PubChem BioAssay (NCI).
